This is an account of results in PubChem BioAssay AID588641 (Sanford-Burnham Center for Chemical Genomics, 2011).

The source made the active and inactive calls. The rule behind the calls is not given here.

The target in the assay is alkaline phosphatase, placental type (human). Description: PLAP enzyme inhibition by analogs, SAR follow-up, selectivity assay for mouse IAP inhibitor project, biochemical, human PLAP isozyme, set 2 (AID 588641). Particulars: purified human placental alkaline phosphatase, enzyme activity.
One may read the IC50 as the concentration that gives 50% inhibition. Regarding `O=C(CCCNS(=O)(=O)c1ccc2[nH]c(=O)oc2c1)NCc1cccc(F)c1`, the IC50 was > 100 µM (inactive). For `O=C(NCc1ccc(F)cc1)C1CCCN(S(=O)(=O)c2ccc3[nH]c(=O)oc3c2)C1` (stereo unspecified), the IC50 was > 100 µM (inactive). As for `O=c1[nH]c2ccc(S(=O)(=O)Nc3ccc4c(c3)OCO4)cc2o1`, the IC50 is > 100 µM (inactive). Consider `CC(C)c1ccc(/C=N/NC(=O)c2cc(O)c(O)c(O)c2)cc1`, for which the IC50 was > 100 µM (inactive). Regarding `O=C(N/N=C/c1ccc(F)c(Br)c1)c1cc(O)c(O)c(O)c1`, the IC50 was > 100 µM (inactive).

For the compound `O=C(CCS(=O)(=O)Nc1ccc2[nH]c(=O)oc2c1)NCc1ccccc1Cl`, the IC50 was > 100 µM (inactive). On to `O=C(N/N=C/c1ccccc1F)c1ccccc1OCc1ccccc1`, for which the IC50 was > 100 µM (inactive). For `O=C(NN=Cc1ccccc1F)c1ccc(O)cc1`, the IC50 is > 100 µM (inactive).

`CSc1cccc(NC(=O)C2CCCN(S(=O)(=O)c3ccc4c(c3)oc(=O)n4C)C2)c1` (stereo unspecified): the IC50 is > 100 µM (inactive). `Cc1ccc(C)c(NC(=O)CCNS(=O)(=O)c2ccc3[nH]c(=O)oc3c2)c1`: the IC50 is > 100 µM (inactive).

Take `O=C(CCCNS(=O)(=O)c1ccc2[nH]c(=O)oc2c1)NCCc1ccc(O)cc1`: the IC50 was > 100 µM (inactive). Turning to `COc1ccc(CNC(=O)CCNS(=O)(=O)c2ccc3[nH]c(=O)oc3c2)c(OC)c1`, the IC50 is > 100 µM (inactive). In the case of `COc1ccc(NC(=O)CCCNS(=O)(=O)c2ccc3[nH]c(=O)oc3c2)c(OC)c1`, the IC50 is > 100 µM (inactive). As for `Cc1ccccc1CNC(=O)CCCNS(=O)(=O)c1ccc2[nH]c(=O)oc2c1`, the IC50 is > 100 µM (inactive).

For `COc1ccc(CNC(=O)CCNS(=O)(=O)c2ccc3c(c2)CCC3)c(OC)c1`, the IC50 is > 100 µM (inactive).

Take `Cc1ccc(NC(=O)CCNS(=O)(=O)c2ccc3[nH]c(=O)oc3c2)cc1C`: the IC50 was > 100 µM (inactive).

Take `COc1ccc(CCNC(=O)CCCNS(=O)(=O)c2ccc3[nH]c(=O)oc3c2)cc1`: the IC50 is > 100 µM (inactive). On to `O=C(CCNS(=O)(=O)c1ccc2[nH]c(=O)oc2c1)NCc1ccc2c(c1)OCO2`, for which the IC50 is > 100 µM (inactive). Consider `O=C(NCc1ccc2c(c1)OCO2)C1CCCN(S(=O)(=O)c2ccc3[nH]c(=O)oc3c2)C1` (stereo unspecified), for which the IC50 was > 100 µM (inactive).

`COc1ccc(OC)c(NC(=O)C2CCCN(S(=O)(=O)c3ccc4c(c3)oc(=O)n4C)C2)c1` (stereo unspecified): the IC50 is > 100 µM (inactive). Under `CCc1ccc(NC(=O)C2CCCN(S(=O)(=O)c3ccc4c(c3)oc(=O)n4C)C2)cc1` (stereo unspecified) stands > 100 µM (inactive).

For the compound `Cc1ccc(C)c(NC(=O)CCNS(=O)(=O)c2ccc3c(c2)CCC3)c1`, the IC50 was > 100 µM (inactive). Regarding `O=C(CCNS(=O)(=O)c1ccc2[nH]c(=O)oc2c1)NCCc1ccc(O)cc1`, the IC50 was > 100 µM (inactive). For the compound `Cc1ccc(C)c(NC(=O)C2CCCN(S(=O)(=O)c3ccc4c(c3)oc(=O)n4C)C2)c1` (stereo unspecified), the IC50 was > 100 µM (inactive). As to `C/C(=N\NC(=O)c1cc(O)c(O)c(O)c1)c1ccc(O)cc1O`, the IC50 was > 100 µM (inactive).

On to `O=C(CCNS(=O)(=O)c1ccc2[nH]c(=O)oc2c1)NCc1ccc(Cl)cc1`, for which the IC50 was > 100 µM (inactive).

With `O=C(CCNS(=O)(=O)c1ccc2[nH]c(=O)oc2c1)NCc1cccc(F)c1`, the IC50 is > 100 µM (inactive). Regarding `CN(C)c1ccc(CNC(=O)C2CCCN(S(=O)(=O)c3ccc4[nH]c(=O)oc4c3)C2)cc1` (stereo unspecified), the IC50 is > 100 µM (inactive). On to `O=C(CCNS(=O)(=O)c1ccc2[nH]c(=O)oc2c1)NCc1ccc(C(F)(F)F)cc1`, for which the IC50 was > 100 µM (inactive). In the case of `COc1ccc(NC(=O)CCNS(=O)(=O)c2ccc3ccccc3c2)cc1OC`, the IC50 is > 100 µM (inactive). As to `COc1ccc(CNC(=O)CCCNS(=O)(=O)c2ccc3[nH]c(=O)oc3c2)c(OC)c1`, the IC50 is > 100 µM (inactive).

`O=C(CCS(=O)(=O)Nc1ccc2[nH]c(=O)oc2c1)NCc1cccc(Cl)c1`: the IC50 was > 100 µM (inactive). On to `COc1cc(C(=O)N/N=C/c2c(F)cccc2Cl)cc(OC)c1OC`, for which the IC50 was > 100 µM (inactive). For `COc1ccc(OC)c(NC(=O)CCNS(=O)(=O)c2ccc3c(c2)oc(=O)n3C)c1`, the IC50 was > 100 µM (inactive). Consider `Cc1ccccc1CNC(=O)C1CCCN(S(=O)(=O)c2ccc3[nH]c(=O)oc3c2)C1` (stereo unspecified), for which the IC50 is > 100 µM (inactive). For the compound `O=C(CCNS(=O)(=O)c1ccc2c(c1)CCC2)NCCc1ccc2c(c1)OCO2`, the IC50 is > 100 µM (inactive). For `O=C(NCc1ccccc1)C1CCCN(S(=O)(=O)c2ccc3[nH]c(=O)oc3c2)C1` (stereo unspecified), the IC50 was > 100 µM (inactive). Under `COc1cccc(CNS(=O)(=O)c2ccc3[nH]c(=O)oc3c2)c1` stands > 100 µM (inactive); under `Cc1ccc(CNC(=O)CCNS(=O)(=O)c2ccc3[nH]c(=O)oc3c2)cc1`, > 100 µM (inactive). Then `CCOc1cc(C(=O)N/N=C/c2c(F)cccc2Cl)cc(OCC)c1OCC`, with > 100 µM (inactive); and `O=C(CCNS(=O)(=O)c1ccc2[nH]c(=O)oc2c1)Nc1ccc2c(c1)OCO2`, with > 100 µM (inactive); and `O=C(N/N=C/c1c(F)cccc1Cl)c1ccc(O)cc1O`, with > 100 µM (inactive). For the compound `CCc1ccc(NC(=O)CCNS(=O)(=O)c2ccc3c(c2)oc(=O)n3C)cc1`, the IC50 was > 100 µM (inactive). Take `N#Cc1cccc(CNC(=O)CCNS(=O)(=O)c2ccc3[nH]c(=O)oc3c2)c1`: the IC50 was > 100 µM (inactive). In the case of `Cc1ccc(NC(=O)CCNS(=O)(=O)c2ccc3c(c2)oc(=O)n3C)c(C)c1`, the IC50 was > 100 µM (inactive). For `Cc1ccc(CNC(=O)C2CCCN(S(=O)(=O)c3ccc4[nH]c(=O)oc4c3)C2)cc1` (stereo unspecified), the IC50 was > 100 µM (inactive). Regarding `Cc1ccc(C)c(CNC(=O)C2CCCN(S(=O)(=O)c3ccc4[nH]c(=O)oc4c3)C2)c1` (stereo unspecified), the IC50 is > 100 µM (inactive). With `COc1ccc(CNC(=O)CCNS(=O)(=O)c2ccc3[nH]c(=O)oc3c2)cc1`, the IC50 was > 100 µM (inactive). As to `COc1cccc(/C=N/NC(=O)c2cc(O)c(O)c(O)c2)c1O`, the IC50 is > 100 µM (inactive). Then `Cc1ccc(NC(=O)CCNS(=O)(=O)c2ccc3c(c2)oc(=O)n3C)cc1C`, with > 100 µM (inactive); and `CC(C)(C)c1ccc(/C=N/NC(=O)c2cc(O)c(O)c(O)c2)cc1`, with 60.8 µM. `COc1ccc(/C=N\NC(=O)c2cc(O)c(O)c(O)c2)cc1CN1CCN(c2ccc(F)cc2)CC1`: the IC50 is > 100 µM (inactive).

As for `COc1ccc(CNS(=O)(=O)c2ccc3[nH]c(=O)oc3c2)cc1`, the IC50 is > 100 µM (inactive). With `O=C(N/N=C/c1c(Cl)cccc1Cl)c1cc(O)c(O)c(O)c1`, the IC50 is > 100 µM (inactive). Consider `COc1ccc(CNC(=O)C2CCCN(S(=O)(=O)c3ccc4[nH]c(=O)oc4c3)C2)cc1` (stereo unspecified), for which the IC50 is > 100 µM (inactive). Regarding `O=C(CCNS(=O)(=O)c1ccc2ccccc2c1)NCCc1ccc2c(c1)OCO2`, the IC50 is > 100 µM (inactive). For the compound `O=C(N/N=C/c1ccc(Br)cc1F)c1cc(O)ccc1O`, the IC50 was > 100 µM (inactive). Turning to `COc1cccc(CNC(=O)CNS(=O)(=O)c2ccc3[nH]c(=O)oc3c2)c1`, the IC50 was > 100 µM (inactive). Consider `O=C(N/N=C/c1c(F)cccc1Cl)c1ccc(O)cc1`, for which the IC50 is > 100 µM (inactive). Then `N#Cc1ccc(NS(=O)(=O)c2ccc3[nH]c(=O)oc3c2)cc1`, with > 100 µM (inactive); and `COc1ccc(NS(=O)(=O)c2ccc3[nH]c(=O)oc3c2)cc1OC`, with > 100 µM (inactive). Consider `N#Cc1cccc(NC(=O)CNS(=O)(=O)c2ccc3[nH]c(=O)oc3c2)c1`, for which the IC50 was > 100 µM (inactive).

With `O=C(N/N=C/c1c(F)cccc1F)c1ccc(O)cc1`, the IC50 is > 100 µM (inactive).

On to `O=C(CCCNS(=O)(=O)c1ccc2[nH]c(=O)oc2c1)NCc1ccccc1Cl`, for which the IC50 was > 100 µM (inactive). Take `O=C(N/N=C/c1cccc(Cl)c1Cl)c1cc(O)c(O)c(O)c1`: the IC50 was > 100 µM (inactive). As for `COc1cccc(NC(=O)CCNS(=O)(=O)c2ccc3c(c2)oc(=O)n3C)c1`, the IC50 is > 100 µM (inactive). For the compound `O=C(N/N=C/c1ccccc1C(F)(F)F)c1cc(O)c(O)c(O)c1`, the IC50 was > 100 µM (inactive). Consider `COc1ccccc1CNC(=O)CCNS(=O)(=O)c1ccc2[nH]c(=O)oc2c1`, for which the IC50 was > 100 µM (inactive). With `COc1ccc(C(=O)N/N=C/c2ccccc2F)cc1`, the IC50 was > 100 µM (inactive). Consider `COc1ccc(CNC(=O)CCCNS(=O)(=O)c2ccc3[nH]c(=O)oc3c2)cc1OC`, for which the IC50 is > 100 µM (inactive). On to `COc1ccc(NC(=O)CCNS(=O)(=O)c2ccc3[nH]c(=O)oc3c2)cc1OC`, for which the IC50 was > 100 µM (inactive). Regarding `O=C(N/N=C/c1ccc(Cl)c(Cl)c1)c1cc(O)c(O)c(O)c1`, the IC50 was > 100 µM (inactive). As to `CCOc1cc(C(=O)N/N=C/c2ccccc2F)cc(OCC)c1OCC`, the IC50 was > 100 µM (inactive). With `COc1ccc(CNC(=O)CCNS(=O)(=O)c2ccc3ccccc3c2)c(OC)c1`, the IC50 was > 100 µM (inactive).

For `COc1ccc(CNC(=O)CNS(=O)(=O)c2ccc3[nH]c(=O)oc3c2)c(OC)c1`, the IC50 is > 100 µM (inactive). Take `COc1ccc(/C=N/NC(=O)c2cc(O)c(O)c(O)c2)cc1OC`: the IC50 was > 100 µM (inactive). As to `COc1ccc(NC(=O)CCNS(=O)(=O)c2ccc3c(c2)CCC3)cc1OC`, the IC50 was > 100 µM (inactive). Regarding `N#Cc1cccc(NS(=O)(=O)c2ccc3[nH]c(=O)oc3c2)c1`, the IC50 was > 100 µM (inactive). As for `COc1ccc(NC(=O)CCCNS(=O)(=O)c2ccc3[nH]c(=O)oc3c2)cc1OC`, the IC50 is > 100 µM (inactive). Under `O=C(CCNS(=O)(=O)c1ccc2[nH]c(=O)oc2c1)NCc1ccccc1F` stands > 100 µM (inactive).

Consider `COc1ccc(CNC(=O)CNS(=O)(=O)c2ccc3[nH]c(=O)oc3c2)cc1`, for which the IC50 is > 100 µM (inactive).
